Data published in patent US8273774B2, “Phenoxypyridinylamide compounds” (AstraZeneca AB, priority 2008, dated 2012).

What follows are compounds tested against recombinant Human Phosphodiesterase B2 (PDE4B2) (Homo sapiens, UniProt Q07343) (assay: Human Phosphodiesterase B2 Radiometric Assay). Conditions: 0.1 μg/mL recombinant PDE4B2; preincubated at 30 C for 30 min; [3H]cyclic AMP 8 nM, stopped after 20 min; yttrium silicate SPA beads; read-out: PDE4B2 pIC50 (converted).
Format: biochemical
Method: Human Phosphodiesterase B2 Radiometric Assay
The assay uses recombinant Human Phosphodiesterase B2 (PDE4B2) produced in house (PrAZL0163), stored at −20° C. This assay is based on the observation that 5′AMP, the product of the reaction catalysed by PDE4, binds preferentially to yttrium silicate SPA beads (Amersham Biosciences, UK) compared to the substrate, cAMP. Compounds at the appropriate concentration were preincubated at 30 C for 30 min with an assay buffer containing 50 mM HEPES (pH 7.5), 8.3 mM MgCl2, 1.7 mM EGTA, 0.01% (w/v) Brij®35 and 0.1 μg/mL recombinant PDE4B2. The reaction was started by the addition of [3H]cyclic AMP to give a final concentration of 8 nM, and was stopped 20 min after the addition of the substrate by the addition of yttrium silicate SPA beads containing 18 mM Zn SO4. Bound […] was measured using a Topcount NXT (Packard Bioscience, UK). pIC50 values (presented in Table 2) were determined using Xlfit3 curve fitting, using model 205.

Chain of recombinant Human Phosphodiesterase B2 (PDE4B2) (Q07343 1-564 isoform Q07343-2): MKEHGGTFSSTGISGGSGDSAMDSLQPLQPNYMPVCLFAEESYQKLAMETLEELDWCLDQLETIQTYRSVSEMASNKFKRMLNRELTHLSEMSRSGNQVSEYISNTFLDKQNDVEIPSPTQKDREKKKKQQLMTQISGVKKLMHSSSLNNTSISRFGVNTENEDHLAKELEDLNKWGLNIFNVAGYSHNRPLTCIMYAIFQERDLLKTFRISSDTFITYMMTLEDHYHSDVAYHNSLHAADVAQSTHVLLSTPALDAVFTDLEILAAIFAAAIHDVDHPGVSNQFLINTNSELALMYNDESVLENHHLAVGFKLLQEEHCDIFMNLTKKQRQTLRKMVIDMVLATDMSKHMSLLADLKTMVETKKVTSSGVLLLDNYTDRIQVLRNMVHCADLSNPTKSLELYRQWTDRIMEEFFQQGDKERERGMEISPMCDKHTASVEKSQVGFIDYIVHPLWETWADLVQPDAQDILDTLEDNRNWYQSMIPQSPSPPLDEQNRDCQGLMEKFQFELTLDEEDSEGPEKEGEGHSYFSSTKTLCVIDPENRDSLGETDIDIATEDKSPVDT

Row | SMILES | IC50
1 | Cc1nc(C(=O)N[C@H]2CC[C@@H](NC(=O)c3cc(F)cnc3Oc3cccc(-c4ccc(CN5C[C@@H](C)N[C@@H](C)C5)cc4CN4CCSCC4)c3)CC2)cs1 [Example 189, N-((1s,4s)-4-(2-(4′-(((3S,5R)-3,5-dimethylpiperazin-1-yl)methyl)-2′-(thiomorpholinomethyl)biphenyl-3-yloxy)-5-fluoronicotinamido)cyclohexyl)-2-methylthiazole-4-carboxamide] | 0.0158 nM
2 | Cc1cccc(C(=O)N[C@H]2CC[C@@H](NC(=O)c3cc(F)cnc3Oc3cccc(-c4ccc(CCCN5CCNCC5)cc4)c3)CC2)n1 [Example 153, N-((1s,4s)-4-(5-fluoro-2-(4′-(3-(piperazin-1-yl)propyl)biphenyl-3-yloxy)nicotinamido)cyclohexyl)-6-methylpicolinamide] | 0.0316 nM
3 | Cc1cc(C(=O)N[C@H]2CC[C@@H](NC(=O)c3cc(F)cnc3Oc3cccc(-c4ccc(CCCN5CCN(C)CC5)cc4)c3)CC2)nn1C [Example 80, N-((1s,4s)-4-(1,5-dimethyl-1H-pyrazole-3-carboxamido)cyclohexyl)-5-fluoro-2-(4′-(3-(4-methylpiperazin-1-yl)propyl)biphenyl-3-yloxy)nicotinamide] | 0.0398 nM
4 | Cc1nc(C(=O)N[C@H]2CC[C@@H](NC(=O)c3cc(F)cnc3Oc3cccc(-c4ccc(CCN5CCC(N6CCCC6)CC5)cc4)c3)CC2)cs1 [Example 112, N-((1s,4s)-4-(5-fluoro-2-(4′-(2-(4-(pyrrolidin-1-yl)piperidin-1-yl)ethyl)biphenyl-3-yloxy)nicotinamido)cyclohexyl)-2-methylthiazole-4-carboxamide] | 0.0398 nM
5 | Cc1nc(C(=O)N[C@H]2CC[C@@H](NC(=O)c3cc(F)cnc3Oc3cccc(-c4ccc(O)cc4CN(C)C(C)(C)C)c3)CC2)cs1 [Example 26, N-((1s,4s)-4-(2-(2′-((tert-butyl(methyl)amino)methyl)-4′-hydroxybiphenyl-3-yloxy)-5-fluoronicotinamido)cyclohexyl)-2-methylthiazole-4-carboxamide] | 0.2 nM
6 | CN(C)C1(C(=O)NC2CCC(NC(=O)c3cc(F)cnc3Oc3cccc(-c4ccc(O)cc4CN4CCOCC4)c3)CC2)CC1 (stereo not drawn) [Example 17, N-((1s,4s)-4-(1-(dimethylamino)cyclopropanecarboxamido)cyclohexyl)-5-fluoro-2-(4′-hydroxy-2′-(morpholinomethyl)biphenyl-3-yloxy)nicotinamide] | 1.58 nM
7 | O=C(N[C@H]1CC[C@@H](NC(=O)c2cc(F)cnc2Oc2cccc(-c3ccc(CCN4CCNCC4)cc3)c2)CC1)c1cn2cc(F)ccc2n1 [Example 117, 6-fluoro-N-((1s,4s)-4-(5-fluoro-2-(4′-(2-(piperazin-1-yl)ethyl)biphenyl-3-yloxy)nicotinamido)cyclohexyl)imidazo[1,2-a]pyridine-2-carboxamide] | 0.1 nM
8 | CN(C)Cc1cc(O)ccc1-c1cccc(Oc2ncc(F)cc2C(=O)N[C@H]2CC[C@@H](NC(=O)c3csc(C(C)(C)C)n3)CC2)c1 [Example 43, 2-tert-butyl-N-((1s,4s)-4-(2-(2′-((dimethylamino)methyl)-4′-hydroxybiphenyl-3-yloxy)-5-fluoronicotinamido)cyclohexyl)thiazole-4-carboxamide] | 0.126 nM

Other lines, results leading:

Row | IC50 | SMILES
9 | 0.02 nM | Cc1cccc2nc(C(=O)N[C@H]3CC[C@@H](NC(=O)c4cc(F)cnc4Oc4cccc(-c5ccc(CN6C[C@@H](C)N[C@@H](C)C6)cc5CN5CCOC[C@@H]5C)c4)CC3)cn12 [Example 175, N-((1s,4s)-4-(2-(4′-(((3S,5R)-3,5-Dimethylpiperazin-1-yl)methyl)-2′-(((S)-3-methylmorpholino)methyl)biphenyl-3-yloxy)-5-fluoronicotinamido)cyclohexyl)-5-methylimidazo[1,2-a]pyridine-2-carboxamide]
10 | 0.0501 nM | Cc1nc(C(=O)N[C@H]2CC[C@@H](NC(=O)c3cc(F)cnc3Oc3cccc(-c4ccc(CCCN5CCCNCC5)cc4)c3)CC2)cs1 [Example 135, N-((1s,4s)-4-(2-(4′-(3-(1,4-diazepan-1-yl)propyl)biphenyl-3-yloxy)-5-fluoronicotinamido)cyclohexyl)-2-methylthiazole-4-carboxamide]
11 | 0.0501 nM | O=C(N[C@H]1CC[C@@H](NC(=O)c2cc(F)cnc2Oc2cccc(-c3ccc(O)cc3CN3CCSCC3)c2)CC1)c1cn2cc(F)ccc2n1 [Example 21, 6-fluoro-N-((1s,4s)-4-(5-fluoro-2-(4′-hydroxy-2′-(thiomorpholinomethyl)biphenyl-3-yloxy)nicotinamido)cyclohexyl)imidazo[1,2-a]pyridine-2-carboxamide]
12 | 0.0398 nM | C[C@@H]1CN(Cc2ccc(-c3cccc(Oc4ncc(F)cc4C(=O)N[C@H]4CC[C@@H](NC(=O)c5cn6cc(F)ccc6n5)CC4)c3)c(CN3CCOCC3)c2)C[C@H](C)N1 [Example 122, N-((1s,4s)-4-(2-(4′-(((3S,5R)-3,5-dimethylpiperazin-1-yl)methyl)-2′-(morpholinomethyl)biphenyl-3-yloxy)-5-fluoronicotinamido)cyclohexyl)-6-fluoroimidazo[1,2-a]pyridine-2-carboxamide]
13 | 0.0398 nM | Cc1cc(C(=O)N[C@H]2CC[C@@H](NC(=O)c3cc(F)cnc3Oc3cccc(-c4ccc(CCCNCCCO)cc4)c3)CC2)nn1C [Example 152, N-((1s,4s)-4-(1,5-dimethyl-1H-pyrazole-3-carboxamido)cyclohexyl)-5-fluoro-2-(4′-(3-(3-hydroxypropylamino)propyl)biphenyl-3-yloxy)nicotinamide]
14 | 0.0398 nM | O=C(N[C@H]1CC[C@@H](NC(=O)c2cc(F)cnc2Oc2cccc(-c3ccc(CCCN4CCNCC4)cc3)c2)CC1)c1cc(C2CC2)n[nH]1 [Example 173, N-((1s,4s)-4-(3-Cyclopropyl-1H-pyrazole-5-carboxamido)cyclohexyl)-5-fluoro-2-(4′-(3-(piperazin-1-yl)propyl)biphenyl-3-yloxy)nicotinamide]
15 | 0.0316 nM | C[C@@H]1CN(CCCc2ccc(-c3cccc(Oc4ncc(F)cc4C(=O)N[C@H]4CC[C@@H](NC(=O)c5cc6n(n5)CCC6)CC4)c3)cc2)C[C@H](C)N1 [Example 140, N-((1s,4s)-4-(2-(4′-(3-((3S,5R)-3,5-dimethylpiperazin-1-yl)propyl)biphenyl-3-yloxy)-5-fluoronicotinamido)cyclohexyl)-5,6-dihydro-4H-pyrrolo[1,2-b]pyrazole-2-carboxamide]
16 | 0.1 nM | CN(C)Cc1cc(O)ccc1-c1cccc(Oc2ncc(F)cc2C(=O)N[C@H]2CC[C@@H](NC(=O)c3nc4ccccc4s3)CC2)c1 [Example 44, N-((1s,4s)-4-(2-(2′-((dimethylamino)methyl)-4′-hydroxybiphenyl-3-yloxy)-5-fluoronicotinamido)cyclohexyl)benzo[d]thiazole-2-carboxamide]
17 | 0.0398 nM | Cc1csc(C(=O)N[C@H]2CC[C@@H](NC(=O)c3cc(F)cnc3Oc3cccc(-c4ccc(CCCN5CCNCC5)cc4)c3)CC2)n1 [Example 148, N-((1s,4s)-4-(5-fluoro-2-(4′-(3-(piperazin-1-yl)propyl)biphenyl-3-yloxy)nicotinamido)cyclohexyl)-4-methylthiazole-2-carboxamide]
18 | 0.01 nM | Cc1cc(C(=O)N[C@H]2CC[C@@H](NC(=O)c3cc(F)cnc3Oc3cccc(-c4ccc(O)cc4CN4CCCOCC4)c3)CC2)nn1C [Example 19, 2-(2′-((1,4-oxazepan-4-yl)methyl)-4′-hydroxybiphenyl-3-yloxy)-N-((1s,4s)-4-(1,5-dimethyl-1H-pyrazole-3-carboxamido)cyclohexyl)-5-fluoronicotinamide]
